Measurements reported in EP0054756A2, “Antibacterial benzylpyrimidines” (THE WELLCOME FOUNDATION LIMITED, priority 1980, dated 1982).
Values after ≈ are worked out from the molar mass of the structure shown. Like-named read-outs stand apart in the source and are kept apart here.

Legend:
Staph.aureus CN 491 = experiment: In vitro antibacterial activity (MIC); type: cell-based; conditions: Staphylococcus aureus, CN491
St. pyogenes = experiment: In vitro antibacterial activity (MIC); type: cell-based; conditions: Streptococcus pyogenes
Dihydrofolate reductase [1] = molecular target: Dihydrofolate reductase (Neisseria gonorrhoeae, UniProt P04174); experiment: biochemical; conditions: N. gonorrhea enzyme; read-out: Dihydrofolate reductase inhibition, I50 x 10^8
Dihydrofolate reductase [2] = molecular target: Dihydrofolate reductase (Plasmodium berghei, UniProt Q27713); experiment: biochemical; conditions: P. berghei enzyme; read-out: Dihydrofolate reductase inhibition, I50 x 10^8
N. gonorrhea [3] = experiment: In vitro antibacterial activity versus TMP, Wellcome test; type: cell-based; conditions: activity relative to trimethoprim
Dihydrofolate reductase [4] = molecular target: Dihydrofolate reductase (Escherichia coli, UniProt P0ABQ4); experiment: Dihydrofolate reductase inhibition; type: biochemical, E. coli
E. coli CN 314 = experiment: In vitro antibacterial activity (MIC); type: cell-based; conditions: Escherichia coli, CN314
Strep.Faecalis CN 478 = experiment: In vitro antibacterial activity (MIC); type: cell-based; conditions: Enterococcus faecalis, CN478
Dihydrofolate reductase [5] = molecular target: T1, Dihydrofolate reductase (Rattus norvegicus, UniProt Q920D2); experiment: Dihydrofolate reductase inhibition; type: biochemical, Rat liver
T1 construct: Rat liver; from tissue; host or cells: rat liver
T1 sequence (Q920D2 1-187): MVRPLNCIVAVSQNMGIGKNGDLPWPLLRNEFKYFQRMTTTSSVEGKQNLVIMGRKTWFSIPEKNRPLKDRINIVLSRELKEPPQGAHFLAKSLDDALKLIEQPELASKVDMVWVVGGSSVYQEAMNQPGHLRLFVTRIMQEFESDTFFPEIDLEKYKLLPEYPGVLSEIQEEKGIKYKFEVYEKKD

N. gonorrhea [6] = experiment: In vitro antibacterial activity versus TMP, Difco test; type: cell-based; conditions: activity relative to trimethoprim
Staphylococcus aureus [7] = experiment: In vitro MIC against bovine mastitis strains; type: cell-based; conditions: "OXFORD", Internal Ref. No. 6571, read-out: Approximate MIC
[8] = LD50 intraperitoneal in male rats; conditions: rat, in vivo, ip
Description: The LD50's ( expressed in rng/kg intraperitoneal) of two compounds of the present invention were determined in male rats.

Streptococcus agalactiae = experiment: In vitro MIC against bovine mastitis strains; type: cell-based; conditions: read-out: Approximate MIC
Source text: (§1) All organisms were isolated from the bovine udder.

[9] = tested on: Streptococcus dysgalactiae; experiment: In vitro MIC against bovine mastitis strains; type: cell-based; conditions: read-out: Approximate MIC
Source text: as §1

Staphylococcus aureus [10] = experiment: In vitro MIC against bovine mastitis strains; type: cell-based; conditions: read-out: Approximate MIC
Source text: as §1

Streptococcus uberis = experiment: In vitro MIC against bovine mastitis strains; type: cell-based; conditions: Internal Ref. No. 359, isolated from the bovine udder, read-out: Approximate MIC
Source text: as §1

[11] = read-out: MIC St. pyogenes CN 10
[12] = read-out: MIC St. pyogenes S3640
[13] = Rat liver enzyme, read-out: Dihydrofolate reductase inhibition, I50 x 10^8
[14] = Internal Ref. No. 321, isolated from the bovine udder
[15] = Internal Ref. No. 371, isolated from the bovine udder
[16] = Internal Ref. No. 366, isolated from the bovine udder
[17] = Internal Ref. No. 367, isolated from the bovine udder
[18] = Internal Ref. No. 316, isolated from the bovine udder
[19] = Internal Ref. No. 317, isolated from the bovine udder
[20] = Internal Ref. No. 348, isolated from the bovine udder
[21] = Internal Ref. No. 349, isolated from the bovine udder
[22] = Internal Ref. No. 352, isolated from the bovine udder
[23] = Internal Ref. No. 353, isolated from the bovine udder

Molecule	MIC (Staph.aureus CN 491)	MIC (St. pyogenes; [11])	MIC (St. pyogenes; [12])	IC50 (Dihydrofolate reductase [1])	IC50 (Dihydrofolate reductase [2])	Act., vs TMP N. gonorrhea Wellcome test (N. gonorrhea [3])	IC50 (Dihydrofolate reductase [4])	MIC (E. coli CN 314)	MIC (Strep.Faecalis CN 478)	IC50 (Dihydrofolate reductase [5])	Act., vs TMP N. gonorrhea Difco test (N. gonorrhea [6])	MIC (Staphylococcus aureus [7])	MIC (Streptococcus agalactiae; [14])	MIC (Streptococcus agalactiae; [15])	MIC [9, 16]	MIC [9, 17]	MIC (Staphylococcus aureus [10]; [18])	MIC (Staphylococcus aureus [10]; [19])	MIC (Staphylococcus aureus [10]; [20])	MIC (Staphylococcus aureus [10]; [21])	further results
COc1cc(Cc2cnc(N)nc2N)cc(OCCCOc2ccccc2)c1OC [compound 5, 2,4-Diamino-5-(3,4-dimethoxy-5-(3-phenoxypropoxy)benzyl)pyrimidine]	0.1 µg/mL (≈ 0.244 µM)	0.3 µg/mL (≈ 0.731 µM)	0.3 µg/mL (≈ 0.731 µM)	32 nM	150 nM	4.12	37 nM	1 µg/mL (≈ 2.44 µM)	0.1 µg/mL (≈ 0.244 µM)	80000 nM	11.28										
2,4-dimethoxy-5-(dime-thoxy-5-(3-p-aminophenyl-propoxy)benzyl)pyrimidine				29 nM																	IC50 (Dihydrofolate reductase [4]; E. coli enzyme, read-out: Dihydrofolate reductase inhibition, I50 x 10^8): 7.2 nM; IC50 (Dihydrofolate reductase [5]; [13]): 81000 nM
COc1cc(Cc2cnc(N)nc2N)cc(OCCCc2ccccc2)c1OC [compound 1, 2,4-Diamino-5-(3,4-dimethoxy-5-(3-phenylpropoxy)benzyl)pyrimidine]	0.03 µg/mL (≈ 0.0761 µM)	0.3 µg/mL (≈ 0.761 µM)	0.3 µg/mL (≈ 0.761 µM)	15 nM	100 nM	5.46	4.8 nM	1 µg/mL (≈ 2.54 µM)	0.1 µg/mL (≈ 0.254 µM)	94000 nM	12.81	0.025 µM (≈ 0.00986 µg/mL)	0.075 µM (≈ 0.0296 µg/mL)	0.75 µM (≈ 0.296 µg/mL)	0.75 µM (≈ 0.296 µg/mL)	0.25 µM (≈ 0.0986 µg/mL)	0.025 µM (≈ 0.00986 µg/mL)	0.025 µM (≈ 0.00986 µg/mL)	0.025 µM (≈ 0.00986 µg/mL)	0.025 µM (≈ 0.00986 µg/mL)	LD50 [8]: > 100 mg/kg; MIC (Staphylococcus aureus [10]; [22]): 0.075 µM (≈ 0.0296 µg/mL); MIC (Staphylococcus aureus [10]; [23]): 0.025 µM (≈ 0.00986 µg/mL); MIC (Streptococcus uberis): 2.5 µM (≈ 0.986 µg/mL)
CCc1cc(Cc2cnc(N)nc2N)cc(CC)c1OCCOCc1ccccc1 [Example 6, 2,4-Diamino-5-(3,5-diethyl-4-(2-benzyloxyethoxy)benzyl)pyrimidine]	3 µg/mL (≈ 7.38 µM)	3 µg/mL (≈ 7.38 µM)	1 µg/mL (≈ 2.46 µM)	48 nM	34 nM	0.35		10 µg/mL (≈ 24.6 µM)	0.3 µg/mL (≈ 0.738 µM)												IC50 (Dihydrofolate reductase [5]; [13]): 26000 nM
COc1cc(Cc2cnc(N)nc2N)cc(OCCCCc2ccccc2)c1OC [compound 3, 2,4-Diamino-5-(3,4-dimethoxy-5-(4-phenylbutoxy)benzyl)pyrimidine]	0.03 µg/mL (≈ 0.0734 µM)	0.1 µg/mL (≈ 0.245 µM)	0.1 µg/mL (≈ 0.245 µM)	18 nM	11 nM	1.54	2.3 nM	3 µg/mL (≈ 7.34 µM)	0.1 µg/mL (≈ 0.245 µM)	43000 nM	11.35	0.025 µM (≈ 0.0102 µg/mL)	0.25 µM (≈ 0.102 µg/mL)	0.25 µM (≈ 0.102 µg/mL)	0.75 µM (≈ 0.306 µg/mL)	0.75 µM (≈ 0.306 µg/mL)	0.075 µM (≈ 0.0306 µg/mL)	0.025 µM (≈ 0.0102 µg/mL)	0.075 µM (≈ 0.0306 µg/mL)	0.075 µM (≈ 0.0306 µg/mL)	MIC (Staphylococcus aureus [10]; [22]): 0.075 µM (≈ 0.0306 µg/mL); MIC (Staphylococcus aureus [10]; [23]): 0.025 µM (≈ 0.0102 µg/mL); MIC (Streptococcus uberis): 0.25 µM (≈ 0.102 µg/mL)
COc1cc(Cc2cnc(N)nc2N)cc(OCCOCc2ccccc2)c1OC [compound 4, 2,4-Diamino-5-(3,4-dimethoxy-5-(2-benzyloxyethoxy)benzyl)pyrimidine]				78 nM			5.4 nM			300000 nM		0.075 µM (≈ 0.0308 µg/mL)	0.25 µM (≈ 0.103 µg/mL)	2.5 µM (≈ 1.03 µg/mL)	3.3 µM (≈ 1.35 µg/mL)	1 µM (≈ 0.41 µg/mL)	0.25 µM (≈ 0.103 µg/mL)	0.075 µM (≈ 0.0308 µg/mL)	0.25 µM (≈ 0.103 µg/mL)	0.075 µM (≈ 0.0308 µg/mL)	MIC (Staphylococcus aureus [10]; [22]): 0.25 µM (≈ 0.103 µg/mL); MIC (Staphylococcus aureus [10]; [23]): 0.075 µM (≈ 0.0308 µg/mL); MIC (Streptococcus uberis): 2.5 µM (≈ 1.03 µg/mL)
